US20180064662A1 (THE GENERAL HOSPITAL CORPORATION, priority 2015, published 2018)

Legend:
[1] = test system: human pancreatic stellate cells (PSCs); test: Human PSCs incubated with metformin in vitro (immunofluorescence, Western blot); assay type: cell-based
Protocol: Following treatment, cells were collected for RNA and protein extraction in order to perform subsequent analysis of gene expression of cytokines and polarization markers, and for analysis of signaling and metabolic pathways. […] Cells were collected for protein extraction for analysis of the activation of fibrosis-related pathways. […] The cells were fixed with 4% paraformaldehyde and blocked with 5% normal donkey serum for 1 h. They were incubated with the designated primary antibodies overnight at 4° C. then for 2 h with the appropriate secondary antibodies at RT. PBS was used for all washes and the stained samples were mounted with Prolong Gold with DAPI. Images were acquired using a confocal microscope. The antibodies used and image acquisition settings are described below. Both cell types were grown in Dulbecco's modified Eagle's medium (Sigma, St. Louis, Mo.) supplemented with 5% (v/v) heat inactivated fetal bovine serum (FBS; Sigma), 100 units/ml penicillin and streptomycin. Cells were cultured at 37° C. in a humidified atmosphere including 5% CO2.
Each tumor sample was homogenized directly in lysis buffer for protein extraction. 20 ug of denatured protein per sample was loaded on 7%, 10% and 12% SDS-polyacrylamide gels. Antibodies used: phospho-p38 MAPKT^180/Y182 and p38; phospho-JNK (SAPK/JNK)^Thr183/Tyr185 and JNK; phospho-AKT^Ser473 and AKT, phospho-ERK(p44/42 MAPK)^T202/Y204 and ERK; phospho-NF-κB^Ser536 and NK-κB; p65^Ser536; phospho-Smad2^Ser465/467 and Smad2; phospho-IGF-I Receptor β^Tyr1135 and IGF; Phospho-IRS-1^Ser612 and IRS; IR; phpspho-stat3^Tyr705 and stat3; Phospho-AMPKα^Thr172 and Ampkα; phospho-Ampkβ^Ser108 and Ampk; phospho-ACC^Ser79 and ACC; Phospho-PDGF Receptor β^Tyr751 and PDGF Receptor β and snail, c-cadherin and vimentin, TGF-β, β-catenin, twist, LC3B. All antibodies listed above were obtained from Cell Signaling Technology (Beverly, Mass.), and diluted 1:1000 with the exception of phospho-JNK (SAPK/JNK)^Thr183/Tyr185, Phospho-NF-κB p65^Ser536, phospho-Smad2^Ser465/467, phospho-IGF-I Receptor β^Tyr1135, Cleaved caspase-3, Phospho-IRS-1^Ser612. Other antibodies used were: αSMA and phospho-Insulin Receptor^Y972 (1:1000 and 1:500, Abcam, Mass.); col-1 (1:1000); MMP-9 and MMP-2 (1:500 and 1:200, EMD Millipore-Billerica, Mass.), AT1 (1:1000, LifeSpan BioSciences Inc, WA), ZEB1 (1:1000, Novus Biologicals, CO), and β-actin (1:5000, Sigma, Mo.). Quantification of protein expression relative to total receptor or β-actin was obtained using Image J software.

macrophage viability = test: MTT viability assay on macrophages; assay type: cell-based, mouse; details: 48 h
MCA-IV tumors = test: MCA-IV breast cancer in lean and obese mice, anti-VEGF therapy; assay type: in vivo, mouse
PAN02 tumors = test system: PAN02 tumors
Text: All experimental use of animals was approved by the institutional animal care and use committee at Massachusetts General Hospital (MGH). All animal procedures abided by Public Health Service Policy on Humane Care of Laboratory Animals guidelines. All mice were bred and maintained MGH animal facility. Wild-type (WT) C57BL/6 mice were originally obtained from the Jackson Laboratory (The Jackson Laboratory, Bar Harbor, Me.) but were bred and maintained in a defined-flora colony. VEGFR1 tyrosine kinase-knockout mice (Flt1^TK−/−) of mixed C57BL/6 and SV129 strain background were originally developed at the University of Tokyo, Japan (Hiratsuka et al. Proc Natl Acad Sci USA (1998)95(16): 9349-54), and subsequently backcrossed to 99.9% C57BL/6 strain background (N10 equivalent) at Massachusetts General Hospital. Strain background was verified by the Jackson Laboratory's Speed Congenic Development Service. Genotyping was performed using polymerase chain reaction (PCR) analysis, as previously described (Hiratsuka et al.). Age-matched animals were used for all experiments. Mice were maintained on a 12-h light-dark cycle in a temperature-controlled barrier facility, with ad libitum access to food and acidified water, unless otherwise specified.
Mice (7-week old) were given either 10% or a 60% fat diet (D12450J and D12492, Research Diets, New Brunswick, N.J.) for 10 weeks, as described in Surwit et al. Metabolism (1995) 44(5):645-51. Body weight was monitored weekly and mice on a high-fat diet were defined as obese if their body weight was greater than 3 SD above the weight of the low fat diet group. At the end of the experiment, animals were weighed and euthanized, and the inguinal, perigonadal, and perineal fat pads were excised and weighed.
Glucose (GTT) and insulin tolerance tests (ITT) were performed after 8 and 9 weeks on the diet, respectively. Male mice were fasted for 16 hours (5pm-9am) for GTT, or 3 hours (9am-12pm) for ITT. Glucose (0.75 mg/g body weight) or insulin (1U/kg body weight) was administered by intraperitoneal (i.p.) injection, and tail blood was sampled at 0, 15, 30, 60, 90, and 120 minutes after administration of glucose/insulin. Blood glucose levels were measured using a Precision Xtra glucose meter (Abbott Diagnostics, Bedford, MA, USA). Glucose tolerance was evaluated calculating the area under the curve (AUC) for each mouse according to the following equation: […]
C57BL/6 VEGFR1(TK)−/− or WT obese and lean mice (after 10 weeks of diets) were used for tumor implantation studies. To induce pancreatic tumors, small (˜1 mm in diameter) chunks from a PAN02 pancreatic tumor source were grafted in the pancreata of obese and lean male mice. To induce breast tumors, 1×10^6 E0771 breast cancer cells were implanted in the mammary fat pad of lean and obese female mice. About 3 weeks after implantation, tumors were removed and tissue was assessed for immune cell infiltration, gene and protein expression of inflammatory, metabolic and major signaling pathway markers. Plasma was also collected and assessed for insulin, IGF-1, glucose and inflammatory markers (see below). Metastatic burden was assessed by counting lung metastasis in the E0771 breast cancer model, and evaluating abdominal wall invasion as well as mesentery metastasis in the PAN02 pancreatic cancer model. For abdominal wall invasion, animals were scored from 0 to 3 based on the extent of invasion: 0=no invasion, 1=less than 3 metastasis, 2=less than 6 metastasis, 3=more than 6 metastasis.
Immediately following excision, tumor tissue was snap frozen and stored in liquid nitrogen until used. Total RNA was extracted and relative gene expression was determined using RT2 Profiler PCR Arrays system (Qiagen) on a Stratagene Mx3000P QPCR System.

[2] = VEGFR-1 inhibition and metformin combined

Question: For CN(C)C(=N)N=C(N)N [metformin, 3-(diaminomethylidene)-1,1-dimethylguanidine], which “protein levels of MMP9 in PSCs” value ([1]; metformin 0, 0.1, 1 and 10 mM, Western blot) is on record?
Answer: decreased protein levels of MMP9

Question: And the “expression of HA in PSCs” value ([1]; metformin 1 mM, 48 h)?
Answer: decreased

Question: What about the “expression of collagen-I in PSCs” value ([1]; metformin 1 mM, 48 h) of the same compound?
Answer: decreased

Question: What about the “expression of AT1, TGF-β and downstream signaling via SMAD-2, PDGF-I3” value ([1]; metformin 0.1-1mM, Western blot) of the same compound?
Answer: reduced expression

Question: What about the “canonical signaling pathways ERK, p38 and STAT3” value ([1]; relatively higher doses (1-10 mM)) of the same compound?
Answer: affected canonical signaling pathways

Question: And the “doses at which metformin reduces macrophage viability” value (macrophage viability)?
Answer: > 0.2 mM

Question: What about the “doses at which metformin reduces macrophage viability” value (macrophage viability; listed as Metformin) of the same compound?
Answer: ≥ 0.4 mM

Question: And the “FGF-2 gene and protein expression, downstream signaling” value (MCA-IV tumors; obese animals treated with anti-VEGF)?
Answer: decreases

Question: What about the vessel density (MCA-IV tumors; obese animals treated with anti-VEGF, metformin) of the same compound?
Answer: decreases

Question: What about the “tumor growth response to anti-VEGF” value (MCA-IV tumors; obese setting, metformin) of the same compound?
Answer: improved tumor growth response to anti-VEGF

Question: What about the “pericyte coverage in tumors” value (PAN02 tumors; [2]) of the same compound?
Answer: increased pericyte coverage

Question: What about the “vessel density in tumor and adipose tissue” value (PAN02 tumors; [2]) of the same compound?
Answer: unaltered vessel density

Question: What about the tumor cell apoptosis (PAN02 tumors; combination group) of the same compound?
Answer: increased tumor cell apoptosis

Question: What about the tumor cell proliferation (PAN02 tumors; combination group) of the same compound?
Answer: decreased proliferation

Question: And the “fraction of perfused vessels” value (PAN02 tumors; combination group compared to control or anti-VEGFR-1 alone)?
Answer: significantly higher

Question: And the “IR/IGF-1 signaling or AMPK/ACC activation” value (PAN02 tumors; obese Flt1TK-/- mice with metformin)?
Answer: no changes

Question: And the plasma insulin (PAN02 tumors; obese Flt1TK-/- mice, 3 weeks after implantation of PAN02)?
Answer: prevented the increased insulin

Question: What about the PAN02 tumor weight (PAN02 tumors; obese mice, VEGFR-1 inhibition and metformin combined) of the same compound?
Answer: at its lowest

Question: And the “expression of major gluconeogenic genes downregulated by VEGFR-1 inhibition” value (PAN02 tumors; obese tumors)?
Answer: restored expression of major gluconeogenic genes
